Drawing on patent US20080312192A1, “Diaryl Urea Derivatives in the Treatment of Protein Kinase Dependent Diseases” (priority 2003, published 2008), this text covers IC50 for nine compounds.

The target of the test is T1, RET (Homo sapiens, UniProt P07949).
T1 construct: expresses the amino acid region 658-1072 (Swiss prot No. Q9BTB0); made in house; host or cells: Sf9 insect cells (baculovirus, vector pFB-GSTX3)
T1 sequence (P07949 658-1072 isoform P07949-2): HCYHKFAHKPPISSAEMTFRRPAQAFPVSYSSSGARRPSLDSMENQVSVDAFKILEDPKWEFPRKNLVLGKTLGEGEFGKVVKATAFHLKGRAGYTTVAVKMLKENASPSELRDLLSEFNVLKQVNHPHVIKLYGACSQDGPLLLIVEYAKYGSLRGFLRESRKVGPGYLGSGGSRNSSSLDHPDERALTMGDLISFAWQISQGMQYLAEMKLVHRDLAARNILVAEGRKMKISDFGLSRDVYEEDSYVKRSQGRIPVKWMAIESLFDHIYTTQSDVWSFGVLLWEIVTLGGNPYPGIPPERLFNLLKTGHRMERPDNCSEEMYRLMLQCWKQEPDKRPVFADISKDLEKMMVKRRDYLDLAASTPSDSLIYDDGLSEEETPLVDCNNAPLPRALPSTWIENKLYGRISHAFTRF
Kind of test: RET kinase inhibition (33P incorporation into poly(Glu,Tyr), GST-wtRET or GST-RET-Men2B). It counts as biochemical. The protocol:
RET kinase inhibition is determined as follows:
The coding sequence for the cytoplasmic domain of wtRET is amplified by PCR from a cDNA library using specific primers. RET-Men2B is generated through site-directed mutagenesis resulting in the M918T mutation. The amplified DNA fragments and the pFB-GSTX3 vector are made compatible for ligation by digestion with SalI and KpnI. Ligation of these DNA fragments results in the baculovirus donor plasmids […] and pFB-GX3-RET-Men2B, respectively.
Production of virus: The baculovirus donor plasmids containing the kinase domains are transfected into the DH10Bac cell line (GIBCO) and the transfected cells are plated on selective agar plates. Colonies without insertion of the fusion sequence into the viral genome (carried by the bacteria) are blue. Single, white colonies are picked and viral DNA (bacmid) is isolated from the bacteria by standard plasmid purification procedures. Sf9 cells or Sf21 cells (American Type Culture Collection) are then transfected in 25 cm^2 flasks with the viral DNA using Cellfectin reagent.
Protein expression in Sf9 cells: Virus-containing media is collected from the transfected cell culture and used for infection to increase its titer. Virus-containing media obtained after two rounds of infection is used for large-scale protein expression. For large-scale protein expression 100 cm^2 round tissue culture plates are seeded with 5×10^7 cells/plate and infected with 1 mL of virus-containing media (approximately 5 MOIs). After 3 days, the cells are scraped off the plate and centrifuged at 500 rpm for 5 minutes. Cell pellets from 10-20, 100 cm^2 plates are re-suspended in 50 mL of ice-cold lysis buffer (25 mM Tris-HCl, pH 7.5, 2 mM EDTA, 1% NP-40, 1 mM DTT, 1 mM PMSF). The cells are stirred on ice for 15 minutes and then centrifuged at 5,000 rpms for 20 minutes.
Purification of GST-tagged proteins: The centrifuged cell lysate is loaded onto a 2 mL glutathione-sepharose column (Pharmacia) and washed 3× with 10 mL of 25 mM Tris-HCl, pH 7.5, 2 mM EDTA, 1 mM DTT, 200 mM NaCl. The GST-tagged proteins are then eluted by 10 applications (1 mL each) of 25 mM Tris-HCl, pH 7.5, 10 mM reduced-glutathione, 100 mM NaCl, 1 mM DTT, 10% glycerol and stored at −70° C.
Measure of enzyme activity: Tyrosine protein kinase assays with either purified GST-wtRET or GST-RET-Men2B protein are carried out in a final volume of 30 μL containing 15 ng of either GST-RET or GST-RET-Men2B protein, 20 mM Tris-HCl, pH 7.5, 1 mM MnCl2, 10 mM MgCl2, 1 mM DTT, 3 μg/mL poly(Glu, Tyr) 4:1, 1% DMSO, 2.0 μM ATP (γ-[^33P]-ATP 0.1 μCi). The activity is assayed in the presence or absence of inhibitors, by measuring the incorporation of ^33P from [γ^33P] ATP into poly(Glu, Tyr) 4:1. […] Subsequently, 40 μL of the reaction mixture are transferred onto Immobilon-PVDF membrane (Millipore) previously soaked for 5 minutes with methanol, rinsed with water, then soaked for 5 minutes with 0.5% H3PO4 and mounted on vacuum manifold with disconnected vacuum source. After spotting all samples, vacuum is connected and each well rinsed with 200 μL 0.5% H3PO4. Membranes are removed and washed 4× on a shaker with 1.0% H3PO4, once with ethanol. Membranes are counted after drying at ambient temperature, mounting in Packard TopCount 96-well frame, and addition of 10 μl/well of Microscint™ (Packard). […] One unit of protein kinase activity is defined as 1 nmole of ^33P transferred from [γ^33P] ATP to the substrate protein/minute/mg of protein at 37° C.
The compound `CNc1nccc(Oc2ccc(NC(=O)Nc3ccc(N4CCN(C)CC4)c(C(F)(F)F)c3)cc2)n1` [Example 53d, 1-[4-(2-Methylamino-pyrimidin-4-yloxy)-phenyl]-3-[4-(4-methyl-piperazin-1-yl)-3-trifluoromethyl-phenyl]-urea] displayed an IC50 of 0.45 µM. In other words, the sub-micromolar range.
Turning to `CNc1nccc(Oc2ccc(NC(=O)Nc3cc(N4CCN(C)CC4)cc(C(F)(F)F)c3)cc2)n1` [Example 53b, 1-[4-(2-Methylamino-pyrimidin-4-yloxy)-phenyl]-3-[3-(4-methyl-piperazin-1-yl)-5-trifluoromethyl-phenyl]-urea], it took 0.45 µM to reach half-maximal inhibition (IC50).
Under `CN1CCN(Cc2ccc(NC(=O)Nc3ccc(Oc4ccnc(N)n4)cc3)cc2C(F)(F)F)CC1` [Example 52a, 1-[4-(2-amino-pyrimidin-4-yloxy)-phenyl]-3-[4-(4-methylpiperazin-1-ylmethyl)-3-trifluoromethyl-phenyl]-urea] stands 0.18 µM.
In the case of `CC(C)N1CCN(Cc2ccc(NC(=O)Nc3ccc(Oc4cc(N)ncn4)cc3)cc2C(F)(F)F)CC1` [Example 19, N-[4-(6-Amino-pyrimidin-4-yloxy)-phenyl]-N′-[4-(4-isopropylpiperazin-1-ylmethyl)-3-trifluoromethyl-phenyl]-urea] it was 0.55 µM; in that of `Nc1cc(Oc2ccc(NC(=O)Nc3cc(CN4CCC4)cc(C(F)(F)F)c3)cc2)ncn1` [Example 4, N-[4-(6-Amino-pyrimidin-4-yloxy)-phenyl]-N′-(3-azetidin-1-ylmethyl-5-trifluoromethyl-phenyl)-urea], 0.083 µM.
`Cc1ncn(Cc2ccc(NC(=O)Nc3ccc(Oc4ccnc(N)n4)cc3)cc2C(F)(F)F)c1C` [Example 51a.1, 1-[4-(2-Amino-pyrimidin-4-yloxy)-phenyl]-3-(4-(4,5-dimethyl-imidazol-1-ylmethyl)-3-trifluoromethyl-phenyl]-urea]: the IC50 was determined as 0.85 µM.
Under `CNc1cc(Oc2ccc(NC(=O)Nc3cc(CN4CCN(C(C)C)CC4)cc(C(F)(F)F)c3)cc2)ncn1` [Example 6, N-[4-(6-Methylamino-pyrimidin-4-yloxy)-phenyl]-N′-[3-(4-isopropylpiperazin-1-ylmethyl)-5-trifluoromethyl-phenyl]-urea] stands 0.96 µM; under `CC(C)(C)N1CCN(Cc2ccc(NC(=O)Nc3ccc(Oc4ccnc(N)n4)cc3)cc2C(F)(F)F)CC1` [Example 50], 0.56 µM.
Under `CCN1CCN(Cc2ccc(NC(=O)Nc3ccc(Oc4ccnc(N)n4)cc3)cc2C(F)(F)F)CC1` [Example 52c, 1-[4-(2-Amino-pyrimidin-4-yloxy)-phenyl]-3-[4-(4-ethyl-piperazin-1-ylmethyl)-3-trifluoromethyl-phenyl]-urea] stands 0.31 µM.
